As a reminder, the Ki is a dissociation constant, usually derived from enzyme kinetics or from competition with a known ligand. A higher Ki goes with a looser hold on the target.

Data on two compounds can be found in ChEMBL document CHEMBL1134245, “Two novel and potent 3-[(o-methoxyphenyl)piperazinylethyl]-5-phenylthien” (Bioorg Med Chem Lett, 2001).

The target of test [1] is T1, Alpha-2B adrenergic receptor (Rattus norvegicus, UniProt P19328).
T1 sequence (P19328 whole entry): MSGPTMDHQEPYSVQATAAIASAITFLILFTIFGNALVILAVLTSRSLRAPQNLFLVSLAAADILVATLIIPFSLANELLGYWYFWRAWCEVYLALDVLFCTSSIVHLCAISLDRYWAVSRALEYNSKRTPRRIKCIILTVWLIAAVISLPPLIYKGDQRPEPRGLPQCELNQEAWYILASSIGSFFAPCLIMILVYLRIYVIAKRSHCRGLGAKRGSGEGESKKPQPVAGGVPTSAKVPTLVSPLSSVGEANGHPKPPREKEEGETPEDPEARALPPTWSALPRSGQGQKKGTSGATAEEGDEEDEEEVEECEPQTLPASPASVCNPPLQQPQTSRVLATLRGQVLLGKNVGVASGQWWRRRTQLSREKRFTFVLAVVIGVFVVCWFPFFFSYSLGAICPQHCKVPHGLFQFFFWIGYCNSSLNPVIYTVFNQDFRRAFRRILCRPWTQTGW
As to the kind of experiment: Ancillary Binding affinity towards rat alpha-2B receptor.

Test [2] deals with T2, Alpha-2C adrenergic receptor (Homo sapiens, UniProt P18825).
T2 sequence (P18825 whole entry): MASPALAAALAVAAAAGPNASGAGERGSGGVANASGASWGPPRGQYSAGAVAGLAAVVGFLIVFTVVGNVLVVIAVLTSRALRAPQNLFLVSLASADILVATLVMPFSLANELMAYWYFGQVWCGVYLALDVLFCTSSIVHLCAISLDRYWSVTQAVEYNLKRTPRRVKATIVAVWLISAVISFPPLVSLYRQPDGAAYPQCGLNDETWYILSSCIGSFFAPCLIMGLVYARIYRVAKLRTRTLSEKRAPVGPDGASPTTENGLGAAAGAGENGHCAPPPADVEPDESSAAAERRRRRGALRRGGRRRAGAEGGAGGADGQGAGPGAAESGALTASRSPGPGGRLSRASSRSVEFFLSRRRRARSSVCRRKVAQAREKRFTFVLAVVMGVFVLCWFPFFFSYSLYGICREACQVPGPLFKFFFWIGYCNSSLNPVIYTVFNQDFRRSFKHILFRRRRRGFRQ
The test can be described thus: Ancillary Binding affinity to cloned human Alpha-2C adrenergic receptor.

Test [3] deals with T3, Alpha-1A adrenergic receptor (Homo sapiens, UniProt P35348).
T3 sequence (P35348 whole entry): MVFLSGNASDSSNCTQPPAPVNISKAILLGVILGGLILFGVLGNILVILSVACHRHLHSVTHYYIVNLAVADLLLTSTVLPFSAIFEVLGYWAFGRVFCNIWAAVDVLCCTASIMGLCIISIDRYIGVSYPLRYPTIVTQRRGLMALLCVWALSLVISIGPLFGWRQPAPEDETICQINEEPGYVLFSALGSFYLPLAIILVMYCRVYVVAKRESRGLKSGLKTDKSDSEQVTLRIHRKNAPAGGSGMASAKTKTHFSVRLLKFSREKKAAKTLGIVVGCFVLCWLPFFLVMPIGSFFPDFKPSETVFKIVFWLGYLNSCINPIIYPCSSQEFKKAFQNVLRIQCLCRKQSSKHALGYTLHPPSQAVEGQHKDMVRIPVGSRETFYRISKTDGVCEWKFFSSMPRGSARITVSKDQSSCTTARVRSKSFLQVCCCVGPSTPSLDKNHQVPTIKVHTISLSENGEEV
The test can be described thus: Binding affinity for human Alpha-1A adrenergic receptor.

The target of test [4] is T4, Alpha-1B adrenergic receptor (Homo sapiens, UniProt P35368).
T4 sequence (P35368 whole entry): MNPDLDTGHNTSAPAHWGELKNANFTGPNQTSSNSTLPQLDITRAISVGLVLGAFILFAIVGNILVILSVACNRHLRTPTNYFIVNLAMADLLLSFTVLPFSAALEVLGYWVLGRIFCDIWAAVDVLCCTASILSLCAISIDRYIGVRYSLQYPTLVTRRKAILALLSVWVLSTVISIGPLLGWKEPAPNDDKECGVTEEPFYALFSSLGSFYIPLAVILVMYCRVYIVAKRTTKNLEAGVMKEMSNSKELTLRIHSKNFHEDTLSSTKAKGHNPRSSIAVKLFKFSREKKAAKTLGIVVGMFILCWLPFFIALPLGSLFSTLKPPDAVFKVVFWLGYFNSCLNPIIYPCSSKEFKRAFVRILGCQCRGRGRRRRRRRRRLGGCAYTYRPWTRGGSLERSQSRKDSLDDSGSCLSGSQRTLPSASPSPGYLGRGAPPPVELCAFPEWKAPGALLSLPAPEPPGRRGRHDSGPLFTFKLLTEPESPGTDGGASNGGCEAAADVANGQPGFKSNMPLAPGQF
The test can be described thus: Binding affinity towards human Alpha-1B adrenergic receptor.

The target of test [5] is T5, Alpha-1A adrenergic receptor (Rattus norvegicus, UniProt P43140).
T5 sequence (P43140 whole entry): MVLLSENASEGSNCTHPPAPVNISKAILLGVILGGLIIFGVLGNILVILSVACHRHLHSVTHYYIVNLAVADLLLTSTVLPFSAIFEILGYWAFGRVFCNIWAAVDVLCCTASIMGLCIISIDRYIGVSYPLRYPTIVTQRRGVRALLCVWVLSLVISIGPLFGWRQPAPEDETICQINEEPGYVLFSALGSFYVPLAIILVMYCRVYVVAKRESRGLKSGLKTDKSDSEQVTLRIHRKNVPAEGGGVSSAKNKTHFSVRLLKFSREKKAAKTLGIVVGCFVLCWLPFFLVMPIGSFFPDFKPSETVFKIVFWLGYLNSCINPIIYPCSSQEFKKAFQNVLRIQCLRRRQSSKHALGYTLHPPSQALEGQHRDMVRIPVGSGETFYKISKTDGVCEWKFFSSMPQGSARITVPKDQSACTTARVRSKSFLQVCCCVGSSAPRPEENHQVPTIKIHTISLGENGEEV
The test can be described thus: Binding affinity towards rat Alpha-1A adrenergic receptor.

For test [6], the target named is T6, Alpha-1D adrenergic receptor (Rattus norvegicus, UniProt P23944).
T6 sequence (P23944 whole entry): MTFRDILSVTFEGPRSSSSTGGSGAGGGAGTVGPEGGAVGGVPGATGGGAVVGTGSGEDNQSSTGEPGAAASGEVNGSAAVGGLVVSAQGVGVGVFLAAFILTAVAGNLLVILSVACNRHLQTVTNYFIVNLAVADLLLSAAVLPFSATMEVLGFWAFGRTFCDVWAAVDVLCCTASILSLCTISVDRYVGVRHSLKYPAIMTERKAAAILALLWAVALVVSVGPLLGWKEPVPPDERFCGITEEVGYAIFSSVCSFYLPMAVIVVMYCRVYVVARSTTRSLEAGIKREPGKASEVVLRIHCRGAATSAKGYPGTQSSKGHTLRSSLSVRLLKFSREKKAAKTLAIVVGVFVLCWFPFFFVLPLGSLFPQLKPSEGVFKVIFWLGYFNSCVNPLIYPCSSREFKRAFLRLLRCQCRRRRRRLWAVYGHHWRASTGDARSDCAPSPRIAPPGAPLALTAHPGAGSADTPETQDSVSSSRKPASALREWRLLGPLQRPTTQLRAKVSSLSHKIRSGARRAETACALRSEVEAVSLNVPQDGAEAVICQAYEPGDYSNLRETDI
As to the kind of experiment: Binding affinity towards rat Alpha-1D adrenergic receptor.

The target in test [7] is T6, Alpha-1D adrenergic receptor. As to the kind of experiment: In vitro functional activity at Alpha-1D receptor in rat aorta. The class given is tissue-based. The note with it: read-out: pA2 (converted).

With `COc1ccccc1N1CCN(CCn2c(=O)[nH]c3scc(-c4ccccc4)c3c2=O)CC1` [A-119637], the Ki came to 71 nM in test [1]; 74.7 nM in test [2]; 2.63 nM in test [3]; 4.66 nM in test [4]; 2.43 nM in test [5]; 0.213 nM in test [6].

Turning to `COc1ccccc1N1CCN(CCn2c(=O)[nH]c3scc(-c4cccc(C)c4)c3c2=O)CC1` [A-123189], the Ki turned out to be 66.6 nM in test [1]; 82 nM in test [2]; 4.17 nM in test [3]; 9.09 nM in test [4]; 3.47 nM in test [5]; 0.17 nM in test [6]. Further, the Kb in test [7] is 0.02 nM.
